The text below walks through data of patent US20240158348A1, “HERBICIDAL CYCLIC AMIDES N-SUBSTITUTED WITH A HALOALKYLSULFONYLANILIDE GROUP” (FMC Corporation, priority 2021, published 2024).

Common to all, as to assay type: in vivo
The test system of one experiment is soybean (Glycine max). The experiment can be described thus: Test C postemergence, soybean. The settings on record: visual injury, 0 to 100 scale (0 no effect, 100 complete control).
Experiment [1] deals with barnyardgrass (Echinochloa crusgalli). As to the kind of experiment: Test D flooded paddy test, barnyardgrass. More on the design: key: 0 = no effect, 100 = complete control. The settings on record: 250 g ai/ha, Flood; applied to paddy water at 2-leaf stage; visual rating after 13 days; scale 0 (no effect) to 100 (complete control). The gist of the method: (§1)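 Pots holding 2-leaf-stage plants were flooded 3 cm deep and dosed via the water, which stayed at that level. After 13 greenhouse days, injury was scored visually against untreated controls, 0 (none) to 100 (complete control); a dash marks no test result.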

Experiment [2] relates to ducksalad (Heteranthera limosa). The experiment can be described thus: Test D flooded paddy test, ducksalad. Details: key: 0 = no effect, 100 = complete control. The settings on record: 250 g ai/ha, Flood; applied to paddy water at 2-leaf stage; visual rating after 13 days; scale 0 (no effect) to 100 (complete control). The method, boiled down: as §1
Experiment [3] has as its system ragweed (common ragweed, Ambrosia artemisiifolia). The experiment can be described thus: Test C preemergence, ragweed. The settings on record: 0 is no effect, 100 is complete control. The method, boiled down:
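Greenhouse pot test. Compounds in a non-phytotoxic solvent with surfactant were applied to a loam–sand soil mix either preemergence as a directed spray or postemergence to plants at the one- to two-leaf stage; 0–100 visual ratings followed after 10 or 12 days.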

Experiment [4] has as its system pigweed, palmer (palmer amaranth, Amaranthus palmeri). As to the kind of experiment: Test C preemergence, palmer amaranth. The settings on record: 0 is no effect, 100 is complete control. The gist of the method:
(§2)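 Ratings run from 0, meaning no effect, up to 100, meaning complete control, judged by eye against untreated plants. Treatment was a directed soil spray before emergence or a postemergence spray on 2–10 cm seedlings, with evaluation 10 or 12 days later.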

A further experiment has as its system rice (Oryza sativa). The experiment can be described thus: Test D flooded paddy test, rice. More on the design: key: 0 = no effect, 100 = complete control. To be noted: 250 g ai/ha, Flood; applied to paddy water at 2-leaf stage; visual rating after 13 days; scale 0 (no effect) to 100 (complete control). The gist of the method: as §1
The subject of experiment [5] is foxtail, giant (giant foxtail, Setaria faberi). As to the kind of experiment: Test C preemergence, giant foxtail. The settings on record: 0 is no effect, 100 is complete control. The method, boiled down:
as §2

Experiment [6] deals with galium (catchweed bedstraw, Galium aparine). The experiment can be described thus: Test C postemergence, galium. To be noted: visual injury, 0 to 100 scale (0 no effect, 100 complete control).
Experiment [7] relates to wheat (Triticum aestivum). As to the kind of experiment: Test C postemergence, wheat. To be noted: visual injury, 0 to 100 scale (0 no effect, 100 complete control). The gist of the method: as §2
The subject of experiment [8] is blackgrass (Alopecurus myosuroides). As to the kind of experiment: Test C postemergence, blackgrass. The settings on record: visual injury, 0 to 100 scale (0 no effect, 100 complete control). The method, boiled down:
as §2

As to `Cc1c(NS(=O)(=O)C(F)(F)F)cc(N2CCC(OCC3CC3)C2=O)c(C)c1F` (stereo not shown) [Compound 63], the results for the “Soybean plant response rating” value in the experiment with soybean (Glycine max) (31 g ai/ha Postemergence) and in the experiment on soybean (Glycine max) (125 g ai/ha Postemergence) were 50 and 100, respectively. Also, the “Plant response rating, Barnyardgrass” value in experiment [1] came out at 45. In addition, the “Plant response rating, Ducksalad” value in experiment [2] is 95. The “Plant response rating (0 to 100 scale), Ragweed” value in [3] (31 g ai/ha Preemergence) was found to be 90; in [3] (125 g ai/ha Preemergence) it was 100. Besides, the “Plant response rating (0 to 100 scale), Pigweed, Palmer” value in experiment [4] (31 g ai/ha Preemergence) and in experiment [4] (125 g ai/ha Preemergence) was 100 throughout. For the same compound, the “Plant response rating, Rice” value in the experiment with rice (Oryza sativa) was 45. The “Plant response rating (0 to 100 scale), Foxtail, Giant” value in [5] (31 g ai/ha Preemergence) and in experiment [5] (125 g ai/ha Preemergence) was 100 each time. For the same compound, the “Galium plant response rating” value in experiment [6] (31 g ai/ha Postemergence) and in experiment [6] (125 g ai/ha Postemergence) was 100 in each case. Moreover, the “Wheat plant response rating” value in [7] (31 g ai/ha Postemergence) was determined as 10; in [7] (125 g ai/ha Postemergence), 40. For the same compound, the “Blackgrass plant response rating” value is on record as 0 in experiment [8] (31 g ai/ha Postemergence) and 30 in experiment [8] (125 g ai/ha Postemergence).

In the case of `Cc1c(NS(=O)(=O)C(F)(F)F)cc(N2CCC(OCC3CCC3)C2=O)c(C)c1F` (stereo not shown) [Compound 64], the “Soybean plant response rating” value with soybean (Glycine max) (31 g ai/ha Postemergence) worked out at 60; in the experiment with soybean (Glycine max) (125 g ai/ha Postemergence), 90. Moreover, the “Plant response rating, Barnyardgrass” value in experiment [1] turned out to be 25. Also, the “Plant response rating, Ducksalad” value in experiment [2] stood at 80. For the same compound, the “Plant response rating (0 to 100 scale), Ragweed” value is 90 in experiment [3] (31 g ai/ha Preemergence) and 100 in experiment [3] (125 g ai/ha Preemergence). For the same compound, the “Plant response rating (0 to 100 scale), Pigweed, Palmer” value in [4] (31 g ai/ha Preemergence) and in experiment [4] (125 g ai/ha Preemergence) was 100 each time. Moreover, the “Plant response rating, Rice” value in the experiment on rice (Oryza sativa) was 15. Moreover, the “Plant response rating (0 to 100 scale), Foxtail, Giant” value in [5] (31 g ai/ha Preemergence) and in experiment [5] (125 g ai/ha Preemergence) was 100 throughout. For the same compound, the “Galium plant response rating” value in [6] (31 g ai/ha Postemergence) and in experiment [6] (125 g ai/ha Postemergence) was 100 in each case. The “Wheat plant response rating” value came out at 0 in experiment [7] (31 g ai/ha Postemergence) and 20 in [7] (125 g ai/ha Postemergence). Besides, the entries for the “Blackgrass plant response rating” value in experiment [8] (31 g ai/ha Postemergence) and in [8] (125 g ai/ha Postemergence) were 0 and 20, respectively.
